Values quoted from earlier work, collected in EP0496548A1, “Carbacyclin analogs” (PURDUE RESEARCH FOUNDATION, priority 1991, dated 1992).

Conditions: in vivo

| half-life ('generally') [min] | Compound | serum half-life (attributed to enzymatic oxidation) |
| --- | --- | --- |
|  | CCCCC[C@H](O)/C=C/[C@@H]1[C@H]2C/C(=C/CCCC(=O)O)C[C@H]2C[C@H]1O [carbacyclin] | comparable to that of prostacyclin |
| 2 to 3 | CCCCC[C@H](O)/C=C/[C@@H]1[C@H]2C/C(=C/CCCC(=O)O)O[C@H]2C[C@H]1O [prostacyclin, Prostacyclin] |  |
